In patent publication US5989198A, “Use of capillary electrophoresis to determine glomerular filtration rate using iothalamate” (Mayo Foundation for Medical Education and Research, priority 1997, dated 1999):
Like-named read-outs stand apart in the source and are kept apart here.

What was measured:
[1] = urine diluted with 5 mM borate; cited from earlier work
[2] = cited from earlier work
[3] = GFR by capillary electrophoresis of non-isotopic (cold) iothalamate meglumine, timed urine and average of 2 plasma samples after subcutaneous injection; type: in vivo, human; conditions: for mean GFR: capillary electrophoresis
Protocol: Prior to the test, patients were given 3 drops of a saturated solution of potassium iodide in 20 mis of water to prevent thyroid uptake of the small amount of free ^125 I-iothalamate and to protect patients from radiation exposure to the thyroid. They were also given a single subcutaneous injection of 0.5 mls of iothalamate meglumine (Conray®) (300 mg) diluted 1:1 with distilled water. Patients who professed an allergy to iodine were not included in this study, nor were patients who had been given an angiographic dye in the previous 24 hours.
On the day of the appointment, the patient ate nothing for 4 hours preceding the test (diabetics 2 hours) and drank 4 glasses of water in the hour preceding the test. They were also instructed not to void within 45 minutes of their appointment time. Patients were given oral hydration of 200 mls/per hour throughout the test.
Prior to injection, urine (U0) and blood plasma (P0) samples were obtained to assess for drug interferences. After subcutaneous injection of the two different GFR markers, a 45-minute equilibration period allowed blood levels to peak and become stable or fall as previously described for 125I subcutaneous iothalamate clearances by N. T. Ott et al., Mayo Clin. Proc., 50, 664 (1975), for ^125 I-iothalamate. This sampling method was adapted from studies reported by Israelit et al. for ^125 I-iothalamate, in Kid. […] After the 45 minute equilibration period, 7 ml of blood (P1) and a urine sample (UE) were collected and time (T0) was recorded. […] Bladder emptying was assessed by monitoring with a Diagnostic Ultrasound bladder scanner (Model No. 2500). […]
The patient was moved to a waiting room and returned to the laboratory after 45 to 60 minutes when the urge to void became apparent. Second blood (P2) and urine (U1) samples were collected, urine volume was recorded, and bladder emptying monitored. Adequacy of the test was confirmed if the bladder was empty (<10 ml or <10% of voided volume on scanner readout), and a minimum of 100 mls of urine was voided during the test. The timed urine (U1) and bloods (P1 and P2) were analyzed by CE. […]

Row | Compound | sample stability, refrigerated [1] | GFR - Range of Normal ([2]; AGE 18-22) | GFR - Range of Normal ([2]; AGE 23-27) | GFR - Range of Normal ([2]; AGE 28-32) | GFR - Range of Normal ([2]; AGE 33-37) | GFR - Range of Normal ([2]; AGE 38-42) | GFR - Range of Normal ([2]; AGE 43-47) | GFR - Range of Normal ([2]; AGE 48-52) | GFR - Range of Normal ([2]; AGE 53-57) | GFR - Range of Normal ([2]; AGE 58-62) | GFR - Range of Normal ([2]; AGE >62) | mean GFR ([3]; initial patient group, before vortexing of ultrafiltrate) | range of GFR's over which CE and isotope methods correlated ([3]; initial patients (one hundred), s.c. injection) | mean GFR ([3]; second group of 31 patients, ultrafiltrate vortexed)
1 | CNC(=O)c1c(I)c(NC(C)=O)c(I)c(C(=O)O)c1I [Iothalamate] | at least 2 weeks | > 90 ml/min/1.73 m^2 | > 88 ml/min/1.73 m^2 | > 86 ml/min/1.73 m^2 | > 84 ml/min/1.73 m^2 | > 82 ml/min/1.73 m^2 | > 80 ml/min/1.73 m^2 | > 78 ml/min/1.73 m^2 | > 75 ml/min/1.73 m^2 | > 73 ml/min/1.73 m^2 | > 70 ml/min/1.73 m^2 |  |  | 
2 | CNC(=O)c1c(I)c(NC(C)=O)c(I)c(C(=O)O)c1I [iothalamate meglumine, 1-deoxy-1-(methylamino)-D-glucitol-5-acetamido-2,4,6,-triiodo-N-methylisophthalamate] |  |  |  |  |  |  |  |  |  |  |  | 58 mls/min/1.73 M^2 | 9-103 mls/min/1.73 M^2 | 62 mls/min
